Values of other authors, collected in patent publication US20070117837A1, “Process for the preparation of amorphous form of a platelet aggregation inhibitor drug” (EGIS GYOGYSZERGYAR RT., priority 2003, published 2007).

Conditions: amorphous form compared with its morphologically uniform crystalline forms

SMILES: CC(C)c1c(C(=O)Nc2ccccc2)c(-c2ccccc2)c(-c2ccc(F)cc2)n1CC[C@@H](O)C[C@@H](O)CC(=O)O [atorvastatine calcium]
- biological availability: better
